Laboratory results as given in patent US4496578A, “Antihypertensive sulfur-containing compounds” (Santen Pharmaceutical Co., Ltd., priority 1978, dated 1985).

Assays:
[1] = test system: male ddy-std. strain mice; assay: Acute toxicity test in mice; assay type: in vivo; conditions: intraperitoneal, suspended in 0.5% tragacanth
Method: The male ddy-std. strain mice (4 weeks of age, weighing 19-21 g) were placed in a breeding room of constant temperature and humidity (23±1° C., 55±5%) and fed freely pellet diet (CE-2, Clea Japan, Inc.) and water ad. libitum for a week. The mice showing the normal growth were selected for the experiment.
Test compound is suspended in 0.5% tragacanth solution, and administered intraperitoneally in a dose of 0.5 ml per 20 g B.W.

[2] = test system: angiotensin I-converting enzyme; assay: Percent inhibition of pressor response to angiotensin I in unanesthetized rats after oral administration (ACE inhibition in vivo); set-up: species or system Male Wistar strain rats; conditions: mg/kg: 2 1.8, 2A 1.3, 2B 1.8, 22 1.5, 22A 1.0, 22B 1.4, 32 1.7, 32C 1.3, 64 1.9
Method: As recently it has been clear that the compounds inhibiting angiotensin I-converting enzyme may be the curative potency against both renal hypertension and essential hypertension, the compounds of this invention are evaluated as antihypertensive agents by the following method.
Male Wistar strain rats weighing 200-300 g were used. Under ether anesthesia, polyethylene cannulae are inserted into carotid artery and jugular vein. The cannula to carotid artery is connected to an electric transducer, while the cannula to jugular vein is connected to an apparatus for continuous infusion. After the complete recovery from anesthesia, angiotensin I is infused intravenously in a dose of 300 ng/kg by the apparatus for continuous infusion, and the pressor response is recorded by polygraph (Nihon Koden, RM-150). The compounds of this invention suspended in 0.5% tragacanth solution are addministered orally in a dose of 0.3 ml per 100 g of body weight, and the pressor response to angiotensin I infused intravenously is measured with time.

CC(=O)Oc1ccccc1C1SC[C@@H](C(=O)O)N1C(=O)CCSC(C)=O (stereo partly drawn) [Compound 32, (4R)-2-(2-Acetoxyphenyl)-3-(S-acetyl-3-mercaptopropanoyl)-4-thiazolidinecarboxylic acid]
acute toxicity, LD [1]: > 500 mg/kg | Inhibition (%) of pressor response to angiotensin I ([2]; 5 min after oral dose): 40.2% | Inhibition (%) of pressor response to angiotensin I ([2]; 15 min after oral dose): 55.3% | Inhibition (%) of pressor response to angiotensin I ([2]; 25 min after oral dose): 70.2% | Inhibition (%) of pressor response to angiotensin I ([2]; 35 min after oral dose): 70.2% | Inhibition (%) of pressor response to angiotensin I ([2]; 45 min after oral dose): 61.1% | Inhibition (%) of pressor response to angiotensin I ([2]; 55 min after oral dose): 54.2% | Inhibition (%) of pressor response to angiotensin I ([2]; 65 min after oral dose): 55.3% | Inhibition (%) of pressor response to angiotensin I ([2]; 75 min after oral dose): 57.2% | Inhibition (%) of pressor response to angiotensin I ([2]; 85 min after oral dose): 48.2% | Inhibition (%) of pressor response to angiotensin I ([2]; 95 min after oral dose): 43.4% | Inhibition (%) of pressor response to angiotensin I ([2]; 105 min after oral dose): 27.3%
